Reference: article PMC4175002, “The Design and Synthesis of Potent and Selective Inhibitors of Trypanosoma brucei Glycogen Synthase Kinase 3 for the Treatment of Human African Trypanosomiasis” (Journal of Medicinal Chemistry, 2014)

Assays:
Assay in all cases: Mammalian kinase profiling (DSTT panel)
Type in all cases: biochemical
Conditions in all cases: 10 μM; average percentage of remaining activity
CAMKKb = biological target: T1, CAMKKb (Homo sapiens, UniProt Q96RR4)
T1 construct: purchased Division of Signal Transduction Therapy (DSTT), University of Dundee
T1 sequence (Q96RR4 whole entry): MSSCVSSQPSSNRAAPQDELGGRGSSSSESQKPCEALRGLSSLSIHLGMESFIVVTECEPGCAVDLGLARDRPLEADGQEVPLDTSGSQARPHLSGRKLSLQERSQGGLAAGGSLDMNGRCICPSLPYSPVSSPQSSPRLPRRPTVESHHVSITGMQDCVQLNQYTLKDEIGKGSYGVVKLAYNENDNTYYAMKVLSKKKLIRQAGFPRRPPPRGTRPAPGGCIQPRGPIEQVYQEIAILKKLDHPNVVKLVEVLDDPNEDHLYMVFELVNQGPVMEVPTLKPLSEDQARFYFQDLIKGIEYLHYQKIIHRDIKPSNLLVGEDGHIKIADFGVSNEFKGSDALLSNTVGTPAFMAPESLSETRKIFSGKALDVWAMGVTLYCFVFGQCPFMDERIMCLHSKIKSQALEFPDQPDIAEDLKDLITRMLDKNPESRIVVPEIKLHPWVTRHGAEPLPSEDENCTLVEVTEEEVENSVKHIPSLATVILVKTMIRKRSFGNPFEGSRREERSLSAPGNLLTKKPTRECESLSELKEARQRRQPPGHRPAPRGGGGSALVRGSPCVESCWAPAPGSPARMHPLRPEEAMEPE
Description: (§1) To assess the selectivity of the aminopyrazole inhibitors, remaining activity at 10 μM concentration was measured for compounds 4f, 4m, and 4y against a panel of 80 human PKs and for compound 9g against 124 human PKs. […] Compound 4m inhibited only two PKs, namely GSK3β and CDK2, at more than 80%.
(§2) Selected compounds were screened against a panel of mammalian kinases routinely run by the Division of Signal Transduction Therapy (DSTT) at the University of Dundee in duplicate at 10 μM.[32] Enzymes included in the panel and assay conditions are reported in the literature. All biochemical assays are run below the Km^app for the ATP for each enzyme, allowing comparison of inhibition across the panel.

CHK2 = biological target: T2, CHK2 (Homo sapiens, UniProt O96017)
T2 construct: purchased Division of Signal Transduction Therapy (DSTT), University of Dundee
T2 sequence (O96017 whole entry): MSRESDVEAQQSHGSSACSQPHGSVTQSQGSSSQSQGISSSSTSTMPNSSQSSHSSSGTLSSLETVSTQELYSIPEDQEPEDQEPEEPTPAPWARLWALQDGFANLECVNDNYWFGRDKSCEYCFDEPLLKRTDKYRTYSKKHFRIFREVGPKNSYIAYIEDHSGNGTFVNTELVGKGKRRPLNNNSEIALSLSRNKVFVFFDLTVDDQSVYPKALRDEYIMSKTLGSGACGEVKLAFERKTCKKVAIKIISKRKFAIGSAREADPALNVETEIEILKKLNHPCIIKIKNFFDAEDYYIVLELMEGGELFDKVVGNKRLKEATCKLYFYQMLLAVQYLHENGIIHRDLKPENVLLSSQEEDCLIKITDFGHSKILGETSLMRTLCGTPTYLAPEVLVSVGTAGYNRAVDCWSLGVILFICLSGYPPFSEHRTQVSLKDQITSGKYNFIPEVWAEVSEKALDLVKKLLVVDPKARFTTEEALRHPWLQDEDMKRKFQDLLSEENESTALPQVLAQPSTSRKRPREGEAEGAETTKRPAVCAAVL
Description: as §1, §2

EPH A2 = biological target: T3, EPH A2 (Homo sapiens, UniProt P29317)
T3 construct: purchased Division of Signal Transduction Therapy (DSTT), University of Dundee
T3 sequence (P29317 24-976): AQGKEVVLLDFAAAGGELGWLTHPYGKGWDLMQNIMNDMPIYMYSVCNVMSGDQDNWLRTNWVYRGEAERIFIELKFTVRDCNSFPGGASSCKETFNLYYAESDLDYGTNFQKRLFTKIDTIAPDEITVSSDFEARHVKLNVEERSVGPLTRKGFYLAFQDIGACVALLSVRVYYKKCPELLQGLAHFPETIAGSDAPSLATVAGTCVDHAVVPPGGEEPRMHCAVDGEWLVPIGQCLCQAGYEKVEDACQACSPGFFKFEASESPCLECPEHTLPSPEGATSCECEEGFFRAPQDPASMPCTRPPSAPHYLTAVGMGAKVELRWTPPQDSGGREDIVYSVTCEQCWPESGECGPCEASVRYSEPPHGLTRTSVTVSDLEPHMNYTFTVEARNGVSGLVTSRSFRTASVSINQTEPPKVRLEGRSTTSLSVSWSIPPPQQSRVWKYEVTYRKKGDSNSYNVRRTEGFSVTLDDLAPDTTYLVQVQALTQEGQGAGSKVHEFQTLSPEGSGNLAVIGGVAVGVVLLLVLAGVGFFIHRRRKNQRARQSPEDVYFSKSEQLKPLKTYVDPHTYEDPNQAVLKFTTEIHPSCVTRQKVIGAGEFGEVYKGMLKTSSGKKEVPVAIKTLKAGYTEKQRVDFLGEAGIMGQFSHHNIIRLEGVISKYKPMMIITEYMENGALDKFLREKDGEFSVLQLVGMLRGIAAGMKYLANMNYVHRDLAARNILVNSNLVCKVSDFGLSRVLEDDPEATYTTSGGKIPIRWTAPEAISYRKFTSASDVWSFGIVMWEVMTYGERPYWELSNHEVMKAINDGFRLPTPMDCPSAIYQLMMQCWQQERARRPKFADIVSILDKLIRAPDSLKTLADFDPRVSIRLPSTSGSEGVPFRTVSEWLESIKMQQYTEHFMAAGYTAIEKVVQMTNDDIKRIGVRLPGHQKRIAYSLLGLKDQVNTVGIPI
Description: as §1, §2

ERK1 = biological target: T4, ERK1 (Homo sapiens, UniProt P27361)
T4 construct: purchased Division of Signal Transduction Therapy (DSTT), University of Dundee
T4 sequence (P27361 whole entry): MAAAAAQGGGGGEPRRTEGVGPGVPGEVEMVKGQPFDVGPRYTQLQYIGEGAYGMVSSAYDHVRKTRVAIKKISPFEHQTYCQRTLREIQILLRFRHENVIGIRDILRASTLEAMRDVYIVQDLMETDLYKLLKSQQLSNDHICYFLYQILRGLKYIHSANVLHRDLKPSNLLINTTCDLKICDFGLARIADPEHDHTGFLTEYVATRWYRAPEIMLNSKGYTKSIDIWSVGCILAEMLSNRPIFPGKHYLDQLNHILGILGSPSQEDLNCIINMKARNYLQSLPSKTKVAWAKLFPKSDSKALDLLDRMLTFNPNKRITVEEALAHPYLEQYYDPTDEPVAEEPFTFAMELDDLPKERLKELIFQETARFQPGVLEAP
Description: as §1, §2

IR-HIS = biological target: T5, IR-HIS (Homo sapiens, UniProt P06213)
T5 construct: purchased Division of Signal Transduction Therapy (DSTT), University of Dundee
Description: as §1, §2

MNK1 = biological target: T6, MNK1 (Homo sapiens, UniProt Q9BUB5)
T6 construct: purchased Division of Signal Transduction Therapy (DSTT), University of Dundee
T6 sequence (Q9BUB5 whole entry): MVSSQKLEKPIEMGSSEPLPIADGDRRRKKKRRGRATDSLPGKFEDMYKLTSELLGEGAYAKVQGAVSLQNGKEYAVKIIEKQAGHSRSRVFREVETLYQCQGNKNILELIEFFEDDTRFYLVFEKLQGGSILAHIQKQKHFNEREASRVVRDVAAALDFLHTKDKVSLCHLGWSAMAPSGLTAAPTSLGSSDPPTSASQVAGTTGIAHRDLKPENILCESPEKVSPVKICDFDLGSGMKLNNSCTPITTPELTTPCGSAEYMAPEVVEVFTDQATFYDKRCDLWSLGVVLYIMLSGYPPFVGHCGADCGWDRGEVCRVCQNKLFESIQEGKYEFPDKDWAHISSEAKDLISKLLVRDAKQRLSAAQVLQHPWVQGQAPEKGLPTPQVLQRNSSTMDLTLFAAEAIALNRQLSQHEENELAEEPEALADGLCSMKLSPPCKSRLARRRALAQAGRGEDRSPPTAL
Description: as §1, §2

MST2 = biological target: T7, MST2 (Homo sapiens, UniProt Q13188)
T7 construct: purchased Division of Signal Transduction Therapy (DSTT), University of Dundee
T7 sequence (Q13188 1-491): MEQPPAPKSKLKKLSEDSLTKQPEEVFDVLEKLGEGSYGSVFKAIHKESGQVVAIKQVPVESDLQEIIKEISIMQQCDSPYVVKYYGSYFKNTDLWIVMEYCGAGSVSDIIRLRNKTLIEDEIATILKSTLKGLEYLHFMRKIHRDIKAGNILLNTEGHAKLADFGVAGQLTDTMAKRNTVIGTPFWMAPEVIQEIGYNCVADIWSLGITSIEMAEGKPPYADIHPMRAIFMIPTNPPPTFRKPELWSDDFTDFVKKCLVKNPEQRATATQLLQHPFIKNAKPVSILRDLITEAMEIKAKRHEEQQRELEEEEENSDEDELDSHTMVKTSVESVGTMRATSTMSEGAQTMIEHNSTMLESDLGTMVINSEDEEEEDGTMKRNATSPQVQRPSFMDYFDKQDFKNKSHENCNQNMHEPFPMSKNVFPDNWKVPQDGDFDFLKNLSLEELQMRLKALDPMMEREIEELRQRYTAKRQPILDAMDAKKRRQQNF
Description: as §1, §2

PDK1 = biological target: T8, PDK1 (Homo sapiens, UniProt O15530)
T8 construct: purchased Division of Signal Transduction Therapy (DSTT), University of Dundee
T8 sequence (O15530 1-556): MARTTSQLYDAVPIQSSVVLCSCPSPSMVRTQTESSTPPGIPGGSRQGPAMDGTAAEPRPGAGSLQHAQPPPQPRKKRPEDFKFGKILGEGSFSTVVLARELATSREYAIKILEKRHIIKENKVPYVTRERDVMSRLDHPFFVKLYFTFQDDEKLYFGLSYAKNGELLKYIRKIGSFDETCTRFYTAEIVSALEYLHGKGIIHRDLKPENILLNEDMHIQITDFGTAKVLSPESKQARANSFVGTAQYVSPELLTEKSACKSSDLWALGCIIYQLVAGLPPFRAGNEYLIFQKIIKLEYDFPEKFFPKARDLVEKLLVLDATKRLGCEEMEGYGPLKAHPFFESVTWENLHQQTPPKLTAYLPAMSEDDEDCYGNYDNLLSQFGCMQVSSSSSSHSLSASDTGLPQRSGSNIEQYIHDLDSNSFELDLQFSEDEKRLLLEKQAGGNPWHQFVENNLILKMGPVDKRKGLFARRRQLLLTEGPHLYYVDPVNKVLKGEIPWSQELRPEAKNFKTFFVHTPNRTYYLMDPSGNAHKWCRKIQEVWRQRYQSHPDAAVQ
Description: as §1, §2

ROCK2 = biological target: T9, ROCK2 (Homo sapiens, UniProt O75116)
T9 construct: purchased Division of Signal Transduction Therapy (DSTT), University of Dundee
Description: as §1, §2

S6K1 = biological target: T10, S6K1 (Homo sapiens, UniProt P23443)
T10 construct: purchased Division of Signal Transduction Therapy (DSTT), University of Dundee
Description: as §1, §2

SRPK1 = biological target: T11, SRPK1 (Homo sapiens, UniProt Q96SB4)
T11 construct: purchased Division of Signal Transduction Therapy (DSTT), University of Dundee
T11 sequence (Q96SB4 whole entry): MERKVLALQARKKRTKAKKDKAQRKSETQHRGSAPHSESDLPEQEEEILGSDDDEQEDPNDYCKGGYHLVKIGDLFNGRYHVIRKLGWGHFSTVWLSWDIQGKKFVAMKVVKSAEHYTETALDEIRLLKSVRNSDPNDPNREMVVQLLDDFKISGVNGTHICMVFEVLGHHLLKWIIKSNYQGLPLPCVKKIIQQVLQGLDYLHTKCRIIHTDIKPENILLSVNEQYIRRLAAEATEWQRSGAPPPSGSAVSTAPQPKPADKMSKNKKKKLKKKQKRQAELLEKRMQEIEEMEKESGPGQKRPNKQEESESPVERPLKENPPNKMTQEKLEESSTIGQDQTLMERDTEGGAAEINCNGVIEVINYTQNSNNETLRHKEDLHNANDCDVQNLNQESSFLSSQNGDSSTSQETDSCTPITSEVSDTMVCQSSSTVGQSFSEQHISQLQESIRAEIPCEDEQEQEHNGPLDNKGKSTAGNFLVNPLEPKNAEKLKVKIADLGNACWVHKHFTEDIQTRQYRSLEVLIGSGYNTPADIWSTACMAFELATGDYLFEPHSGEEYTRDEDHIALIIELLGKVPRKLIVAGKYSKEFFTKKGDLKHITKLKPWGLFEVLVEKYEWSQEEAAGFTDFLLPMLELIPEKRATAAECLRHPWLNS
Description: as §1, §2

SYK = biological target: T12, SYK (Homo sapiens, UniProt P43405)
T12 construct: purchased Division of Signal Transduction Therapy (DSTT), University of Dundee
Description: as §1, §2

SmMLCK = biological target: T13, SmMLCK (Homo sapiens, UniProt Q15746)
T13 construct: purchased Division of Signal Transduction Therapy (DSTT), University of Dundee
T13 sequence (Q15746 923-1914): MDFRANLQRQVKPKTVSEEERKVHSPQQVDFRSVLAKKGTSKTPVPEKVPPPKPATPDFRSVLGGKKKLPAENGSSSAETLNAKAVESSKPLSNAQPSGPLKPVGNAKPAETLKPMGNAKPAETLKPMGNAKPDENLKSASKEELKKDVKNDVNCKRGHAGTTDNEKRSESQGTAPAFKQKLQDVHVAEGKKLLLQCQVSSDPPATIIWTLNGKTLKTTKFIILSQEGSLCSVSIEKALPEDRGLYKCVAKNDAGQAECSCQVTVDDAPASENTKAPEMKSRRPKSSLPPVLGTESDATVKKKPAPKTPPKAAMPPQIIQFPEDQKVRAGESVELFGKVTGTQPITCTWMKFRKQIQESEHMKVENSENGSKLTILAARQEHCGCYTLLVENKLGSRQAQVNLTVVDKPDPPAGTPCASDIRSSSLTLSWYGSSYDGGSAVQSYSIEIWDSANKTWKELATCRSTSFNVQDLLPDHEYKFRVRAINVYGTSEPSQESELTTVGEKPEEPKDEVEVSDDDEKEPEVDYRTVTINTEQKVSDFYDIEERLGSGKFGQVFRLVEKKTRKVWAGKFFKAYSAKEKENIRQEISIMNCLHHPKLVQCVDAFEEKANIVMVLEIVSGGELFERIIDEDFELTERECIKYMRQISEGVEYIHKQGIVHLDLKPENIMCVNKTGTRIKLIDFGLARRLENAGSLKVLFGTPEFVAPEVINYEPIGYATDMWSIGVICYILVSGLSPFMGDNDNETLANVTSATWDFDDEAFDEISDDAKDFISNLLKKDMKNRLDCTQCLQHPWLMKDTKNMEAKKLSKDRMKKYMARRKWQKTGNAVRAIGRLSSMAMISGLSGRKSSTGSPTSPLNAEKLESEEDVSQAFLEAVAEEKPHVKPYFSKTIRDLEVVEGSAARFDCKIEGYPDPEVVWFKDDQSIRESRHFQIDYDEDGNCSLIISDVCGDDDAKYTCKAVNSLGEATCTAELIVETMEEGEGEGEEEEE
Description: as §1, §2

Row | SMILES | CAMKKb activity compared to the control (CAMKKb) | CHK2 activity compared to the control (CHK2) | EPH A2 activity compared to the control (EPH A2) | ERK1 activity compared to the control (ERK1) | IR-HIS activity compared to the control (IR-HIS) | MNK1 activity compared to the control (MNK1) | MST2 activity compared to the control (MST2) | PDK1 activity compared to the control (PDK1) | ROCK2 activity compared to the control (ROCK2) | S6K1 activity compared to the control (S6K1) | SRPK1 activity compared to the control (SRPK1) | SYK activity compared to the control (SYK) | SmMLCK activity compared to the control (SmMLCK)
1 | CO[C@H]1CC[C@H](NC(=O)c2n[nH]cc2NC(=O)c2ccccc2)CC1 [Compound 4f, 4-Benzamido-N-(4-methoxycyclohexyl)-1H-pyrazole-3-carboxamide] | 34% | 100% | 100% | 75% | 84% | 76% | 72% | 87% | 81% | 100% | 90% | 78% | 25%
2 | COc1cccc(OC)c1C(=O)Nc1c[nH]nc1C(=O)NC1CCC(OC)CC1 (stereo not drawn) [Compound 4m, 4-(2,6-Dimethoxybenzamido)-N-(4-methoxycyclohexyl)-1H-pyrazole-3-carboxamide] | 50% | 75% | 100% | 100% | 99% | 81% | 81% | 87% | 74% | 100% | 78% | 100% | 65%
3 | CO[C@H]1CC[C@H](NC(=O)c2n[nH]cc2NC(=O)c2ccc(-c3ccccc3)o2)CC1 [Compound 4y, N-(4-Methoxycyclohexyl)-4-(5-phenylfuran-2-carboxamido)-1H-pyrazole-3-carboxamide] | 27% | 51% | 100% | 33% | 50% | 82% | 69% | 86% | 72% | 58% | 72% | 70% | 23%
